This is an account of results in PubChem BioAssay (NCI).

Among the test systems are MOLT-4 leukemia; SF-268 CNS; UACC-62 melanoma; OVCAR-5 ovarian; KM20L2 colon; A549 NSCLC; EKVX NSCLC; OVCAR-8 ovarian; OVCAR-3 ovarian; LOX IMVI melanoma.
Common to all, as to experiment: NCI-60 cell line screen, 48 h

The structures appear in SMILES notation. “And” between values parts separate entries of the source, which are not always exact repeats. Identical values can stand only once.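 How tested: cells in 96-well plates exposed to compound for 48 hours at five concentrations. GI50 marks 50% less growth. TGI is the concentration that stops growth completely.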

With `Cc1ccc(CCC(=O)C(=O)O)s1`, the TGI is over 100 µM in the test on MOLT-4 leukemia; over 100 µM in the test on SF-268 CNS; 48.6 µM in the test with UACC-62 melanoma; over 100 µM in the test on OVCAR-5 ovarian; over 100 µM in the test with KM20L2 colon; over 100 µM with A549 NSCLC. Moreover, the TGI in the test on EKVX NSCLC, in the test with OVCAR-8 ovarian and with OVCAR-3 ovarian was over 100 µM in each case.
Regarding `CCCCNC(=O)/N=C/c1c(O)c2ccccc2oc1=O`, the TGI with MOLT-4 leukemia, in the test with LOX IMVI melanoma, with SF-268 CNS, with UACC-62 melanoma, with OVCAR-5 ovarian and with KM20L2 colon was over 100 µM in each case. The TGI in the test with A549 NSCLC, in the test with EKVX NSCLC and in the test with OVCAR-8 ovarian was over 100 µM in each case.
Take `COc1ccc(Sc2ccccc2N)cc1`: the TGI in the test on MOLT-4 leukemia, in the test on LOX IMVI melanoma, in the test on SF-268 CNS, in the test with UACC-62 melanoma, in the test with OVCAR-5 ovarian and in the test on KM20L2 colon was over 100 µM in each case. Moreover, the TGI with A549 NSCLC, in the test with EKVX NSCLC, in the test on OVCAR-8 ovarian and with OVCAR-3 ovarian was over 100 µM each time.
`O=C(N/N=C/c1cc(Br)cc(Br)c1[O-])c1ccccc1O.O=C(N/N=C/c1cc(Br)cc(Br)c1[O-])c1ccccc1O.[Ni+2]`: the TGI in the test on MOLT-4 leukemia came to 15.6 µM; in the test on LOX IMVI melanoma it was 1.84 µM; in the test on SF-268 CNS it was 6.94 µM; in the test with UACC-62 melanoma, 0.661 µM; with OVCAR-5 ovarian, 1.34 µM; in the test with KM20L2 colon, 1.85 µM. For the same compound, the TGI with A549 NSCLC worked out at 2.33 µM; with EKVX NSCLC it was 2.97 µM; in the test with OVCAR-8 ovarian, 1.34 µM; in the test on OVCAR-3 ovarian, 0.52 µM.
Turning to `COC(=O)C(NC(=O)c1ccccc1)C(c1ccc(Cl)cc1)P(=O)(OC)OC` (stereo not drawn), the TGI in the test on MOLT-4 leukemia, in the test with LOX IMVI melanoma, in the test on SF-268 CNS, in the test with UACC-62 melanoma, with OVCAR-5 ovarian and with KM20L2 colon was over 100 µM in each case. Besides, the TGI in the test with A549 NSCLC, with EKVX NSCLC and with OVCAR-8 ovarian was over 100 µM in each case.
In the case of `NCCCNCCCCN1CC1`, the TGI with LOX IMVI melanoma is 11.8 µM; in the test on SF-268 CNS, over 29.9 µM; in the test with UACC-62 melanoma, 68.8 µM; with OVCAR-5 ovarian, over 33.8 µM; in the test on A549 NSCLC, over 44.5 µM; in the test on EKVX NSCLC, 16.7 µM. The compound further yielded a TGI in the test on OVCAR-3 ovarian of 4.78 µM.
Consider `COc1ccc(N2NC(c3ccccc3)(c3ccccc3)C(C)C2=O)cc1` (stereo not drawn), for which the TGI in the test on MOLT-4 leukemia, in the test with LOX IMVI melanoma, with SF-268 CNS, in the test on UACC-62 melanoma, with OVCAR-5 ovarian and in the test with A549 NSCLC was over 100 µM each time. Besides, the TGI in the test on EKVX NSCLC, in the test on OVCAR-8 ovarian and in the test on OVCAR-3 ovarian was over 100 µM in each case.
In the case of `COc1ccc(-c2nn(-c3ccc(NC(=O)Nc4ccc(Cl)c(C(F)(F)F)c4)cc3)cc2-c2ccncc2)cc1Cl`, the GI50 was 1.7 µM in the test on MOLT-4 leukemia; 2.8 µM in the test on SF-268 CNS; 1.33 µM in the test with UACC-62 melanoma; 1.88 µM in the test with OVCAR-5 ovarian; 1.2 µM in the test on A549 NSCLC; 1.83 µM with EKVX NSCLC. Besides, the GI50 was 2.02 µM in the test on OVCAR-8 ovarian and 1.67 µM with OVCAR-3 ovarian. Further, the TGI was 6.75 µM with MOLT-4 leukemia; 19.5 µM in the test with SF-268 CNS; 2.75 µM in the test on UACC-62 melanoma; 5.96 µM in the test on OVCAR-5 ovarian; over 100 µM in the test on A549 NSCLC; 14.4 µM in the test on EKVX NSCLC. The results for the TGI in the test on OVCAR-8 ovarian and in the test with OVCAR-3 ovarian were 20.7 µM and 6.14 µM, respectively.
For `CN(C)/N=N/c1nc[nH]c1C(N)=O`, the GI50 in the test with MOLT-4 leukemia was 17.8 µM; in the test with LOX IMVI melanoma, 29.8 µM; with SF-268 CNS it was 54.8 µM; with UACC-62 melanoma, 23.8 µM; in the test on OVCAR-5 ovarian, over 788 µM; with A549 NSCLC it was over 147 µM. The GI50 in the test with EKVX NSCLC is 94.1 µM and > 134 µM; in the test on OVCAR-8 ovarian it was 35.9 µM; in the test with OVCAR-3 ovarian it was 101 µM. Moreover, the TGI in the test with LOX IMVI melanoma was over 1000 µM; in the test with SF-268 CNS it was over 791 µM; in the test with UACC-62 melanoma, > 98.6 µM and 363 µM; with OVCAR-5 ovarian, over 1000 µM; in the test on EKVX NSCLC, over 169 µM; with OVCAR-8 ovarian, over 1000 µM. Also, the TGI in the test on OVCAR-3 ovarian is over 1000 µM.
Consider `COC1OC2=CCC3C(=O)NC(=O)C3C2[C@H](OCc2ccccc2)C1OCc1ccccc1` (stereo partly drawn), for which the TGI in the test on LOX IMVI melanoma was found to be 3.22 µM; in the test with UACC-62 melanoma, 6 µM; in the test on OVCAR-5 ovarian, 29.1 µM; with KM20L2 colon it was 5.59 µM; in the test on A549 NSCLC, 40.1 µM; with EKVX NSCLC, 3.39 µM. For the same compound, the figures for the TGI in the test on OVCAR-8 ovarian and with OVCAR-3 ovarian were 3.07 µM and 3.1 µM, respectively.
